Measured values as given in US8822533B1, “Methods and compositions for repelling and/or killing insects” (The United States of America, as represented by the …, priority 2011, dated 2014).

Test system: Ae. aegypti + An. albimanus
Experiment: Bite protection of FRACUs (Defender-M) treated with insecticides
Format: in vivo
Settings: FRACU (Defender-M) sleeve; allethrin 0.085, bioresmethrin 0.106, etofenprox 0.101, bifenthrin 0.101 mg/cm^2
Procedure: Biological Evaluation: Bite protection assays were conducted with laboratory-reared 7-12 day old mosquitoes or sand flies. The species used throughout these studies are Aedes aegypti (Orlando, 1952) and Phlebotomus papatasi sand flies (Jerusalem, 1983). Females were pre-selected using either a hand draw box or a mechanical aspirator.
An assay was conducted by wearing sewn sleeves made from clothing material. Treated specimens were assayed with untreated controls to correct for the bite resistance afforded by material construction and composition. The untreated control was tested at the beginning of the experiment, followed by successively higher candidate repellent concentrations on sleeves. Sleeves were sewn from a cut out single ply trapezoidal pattern (33.2 cm×21 cm×25.5 cm height) of material. Sleeves were normally with a candidate repellent at the EPA permethrin label rate of 0.52% weight on (+5% tolerance) or less (0.125 mg/cm^2 for the 50/50 Nylon/Cotton (NYCO) Army Combat Uniform and 0108 mg./cm2 for the 65% Rayon/25% Para-aramid/10% Nylon Fire-Resistant Army Combat Uniform). Permethrin was 35:65cis: trans, 95.85% technical material. Experimental repellents were received as neat samples with <5% impurities. The treatment occurred by dissolution of repellent in suitable quantity of acetone to saturate the clothing, but minimizing excess solution. Excess solution was quantified and this amount of excess was then used to calculate the estimated amount of repellent applied to the material.
Insects were maintained in colony at approximately 78° F. and 60-80% RH. The photoperiod was 12:12. The mosquito cages were approximately 60000 cm^3 and each contained 175 to 225 female mosquitoes. […] Cages for sand fly work were slightly smaller (15000 cm^3) and constructed of acrylic for filming purposes and with screens on the exterior edges to allow air flow through the system. About 20-40 sand flies were released in cages for each assay. Assays started when the sleeved arm was inserted through the sleeve into the cage. Normally the hand was protected by a glove, but there were situations (i.e. sand fly data presented here) when the ability of a repellent to protect the untreated hand was determined. The assay periods were 15 min for the mosquitoes and 25-30 minutes for sand flies. The insects were allowed to land, probe and possibly bloodfeed during this time. At the conclusion of the experiment, all insects were knocked down or aspirated and the percentage that bloodfed of the total female test population in the cage was recorded. The protect level was calculated by Abbott's formula as a percentage reduction in bites compared to the untreated fabric control sleeve.
We were able to examine several treatments on the FRACU fabric sleeves (Table 7). […]

| SMILES | Bite Protection (% ± SE) (Ae. aegypti + An. albimanus) |
| --- | --- |
| Cc1c(COC(=O)[C@@H]2[C@H](/C=C(\Cl)C(F)(F)F)C2(C)C)cccc1-c1ccccc1 (racemic) [Bifenthrin] | 91.5 ± 1.1% |
| C=CCC1=C(C)C(OC(=O)C2C(C=C(C)C)C2(C)C)CC1=O (stereo not drawn) [Allethrin] | 98.7 ± 0.8% |
| CC(C)=C[C@@H]1[C@@H](C(=O)OCc2coc(Cc3ccccc3)c2)C1(C)C [Bioresmethrin] | 98.1 ± 0.8% |
